Like-named read-outs stand apart in the source and are kept apart here.
How the values were obtained:
[1] = system: test plant species in Direct Seeded Rice; experiment: Postemergence herbicidal activity in direct seeded rice (Table 13); assay type: in vivo; conditions: for GR50 BRAPP / GR80 BRAPP / GR50 CYPSS / GR80 CYPSS / GR50 ECHSS / GR80 ECHSS / GR50 LEFSS / GR80 LEFSS / GR20 ORYSS / GR50 SCPJU / GR80 SCPJU / GR50 SEBEX / GR80 SEBEX: probit analysis; for GR20 ORYSS: ORYSS: Oryza sativa (crop); for pest or weed control at 35 g/ha / pest or weed control at 70 g/ha: post-emergence, 504 h; for pest or weed control at 35 g/ha: 35 g ai/ha; for pest or weed control at 70 g/ha: 70 g ai/ha
In short: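 Visual injury scores (0 no injury to 100 complete kill) taken 20-22 days after treatment were converted by probit analysis into GR20–GR90 doses. Treatment was an overhead track spray at 187 L/ha onto second-to-third true leaf plants, using acetone/DMSO (final 16.2%/0.5%) with Agri-dex crop oil; solvent blank served as control.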

[2] = system: CIRAR: Canada thistle (Cirsium arvense); experiment: Post-emergent Test III, herbicidal activity in wheat and barley; assay type: in vivo; conditions: Table 8, 21 d; for pest or weed control at 35 g/ha / pest or weed control at 70 g/ha: Cirsium arvense, post-emergence, 504 h, post-emergent, read-out: Visual Growth Reduction (%) 21 Days After Application CIRAR; for pest or weed control at 35 g/ha: 35 g ai/ha; for pest or weed control at 70 g/ha: 70 g ai/ha; for GR50 CIRAR: dose for 50 percent growth reduction; for GR50 CIRAR / GR80 CIRAR: probit analysis; for GR80 CIRAR: dose for 80 percent growth reduction
In short: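 GR20, GR50, GR80 and GR90 come from probit analysis of visual injury scores (0 = none, 100 = complete kill) taken 21 d after treatment. Foliar application was by track sprayer delivering 187 L/ha at five rates, from high down to 1/16×, onto greenhouse plants at the 2–3 leaf stage, with solvent-blank controls.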

[3] = BRAPP: broadleaf signalgrass, Brachiaria platyphylla
[4] = CYPSS: sedge (Cyperus difformis, esculentus, iria)
[5] = ECHSS: barnyardgrass (Echinochloa crus-galli), junglerice (Echinochloa colonum)
[6] = LEFSS: sprangletop (Leptochloa chinensis, Leptochloa dubia)
[7] = SCPJU: Japanese bulrush, Scirpus juncoides
[8] = SEBEX: hemp sesbania, Sesbania exaltata
[9] = BRAPP: broadleaf signalgrass, Brachiaria platyphylla, read-out: Visual Growth Reduction (%) 21 Days After Application BRAPP
[10] = CYPSS: sedge (Cyperus difformis, esculentus, iria), read-out: Visual Growth Reduction (%) 21 Days After Application CYPSS
[11] = ECHSS: barnyardgrass (Echinochloa crus-galli), junglerice (Echinochloa colonum), read-out: Visual Growth Reduction (%) 21 Days After Application ECHSS
[12] = LEFSS: sprangletop (Leptochloa chinensis, Leptochloa dubia), read-out: Visual Growth Reduction (%) 21 Days After Application LEFSS
[13] = ORYSS: Oryza sativa, read-out: Visual Growth Reduction (%) 21 Days After Application ORYSS
[14] = SCPJU: Japanese bulrush, Scirpus juncoides, read-out: Visual Growth Reduction (%) 21 Days After Application SCPJU
[15] = SEBEX: hemp sesbania, Sesbania exaltata, read-out: Visual Growth Reduction (%) 21 Days After Application SEBEX

SMILES | GR50 BRAPP [1, 3] [g ai/ha] | GR80 BRAPP [1, 3] [g ai/ha] | GR50 CYPSS [1, 4] [g ai/ha] | GR80 CYPSS [1, 4] [g ai/ha] | GR50 ECHSS [1, 5] [g ai/ha] | GR80 ECHSS [1, 5] [g ai/ha] | GR50 LEFSS [1, 6] [g ai/ha] | GR80 LEFSS [1, 6] [g ai/ha] | GR20 ORYSS [1] [g ai/ha] | GR50 SEBEX [1, 8] [g ai/ha] | GR80 SEBEX [1, 8] [g ai/ha] | pest or weed control at 35 g/ha [1, 9] [%] | pest or weed control at 70 g/ha [1, 9] [%] | pest or weed control at 35 g/ha [1, 10] [%] | pest or weed control at 70 g/ha [1, 10] [%] | pest or weed control at 35 g/ha [1, 11] [%] | pest or weed control at 70 g/ha [1, 11] [%] | pest or weed control at 35 g/ha [1, 12] [%] | pest or weed control at 70 g/ha [1, 12] [%] | pest or weed control at 35 g/ha [1, 13] [%] | other results
COC(=O)c1nc(-c2ccc(Br)c(F)c2F)nc(N)c1OC [Compound 122, methyl 6-amino-2-(4-bromo-2,3-difluorophenyl)-5-methoxypyrimidine-4-carboxylate] | 5 | 42 | 1 | 1 | 6 | 47 | >70 | >70 | 70 | 1 | 1 | 75 to 84 | 85 to 94 | 95 to 100 | 95 to 100 | 75 to 84 | 85 to 94 | 0 to 29 | 0 to 29 | 0 to 29 | GR50 SCPJU [1, 7]: 1 g ai/ha; GR80 SCPJU [1, 7]: 1 g ai/ha; pest or weed control at 70 g/ha [1, 13]: 0 to 29%; pest or weed control at 35 g/ha [1, 14]: 95 to 100%; pest or weed control at 70 g/ha [1, 14]: 95 to 100%; pest or weed control at 35 g/ha [1, 15]: 95 to 100%; pest or weed control at 70 g/ha [1, 15]: 95 to 100%
Nc1cc(-c2ccc(Br)c(F)c2)nc(C(=O)O)c1Cl [Compound 110, 4-Amino-6-(4-bromo-3-fluorophenyl)-3-chloropicolinic acid] |  |  |  |  |  |  |  |  |  |  |  |  |  |  |  |  |  |  |  |  | pest or weed control at 35 g/ha [2]: 75 to 84%; pest or weed control at 70 g/ha [2]: 75 to 84%; GR50 CIRAR [2]: 19 g ai/ha; GR80 CIRAR [2]: 52 g ai/ha
Nc1c(F)c(-c2ccc(C(F)(F)F)c(F)c2)nc(C(=O)O)c1Cl [Compound 134] | 3 | 12 | 6 | 13 | 1 | 1 | 6 | 15 | 5 | 1 | 1 | 95 to 100 | 95 to 100 | 95 to 100 | 95 to 100 | 95 to 100 | 95 to 100 | 95 to 100 | 95 to 100 | 60 to 74 | GR50 SCPJU [1, 7]: 1 g ai/ha; GR80 SCPJU [1, 7]: 1 g ai/ha; pest or weed control at 70 g/ha [1, 13]: 85 to 94%; pest or weed control at 70 g/ha [1, 14]: 95 to 100%; pest or weed control at 35 g/ha [1, 15]: 95 to 100%; pest or weed control at 70 g/ha [1, 15]: 95 to 100%
Nc1c(F)c(-c2ccc(Cl)c(F)c2)nc(C(=O)O)c1Cl [Compound 217] | 3 | 5 | 5 | 11 | 1 | 1 | 1 | 3 | 10 | 1 | 1 | 95 to 100 | 95 to 100 | 95 to 100 | 95 to 100 | 95 to 100 | 95 to 100 | 95 to 100 | 95 to 100 | 45 to 59 | GR50 SCPJU [1, 7]: 1 g ai/ha; GR80 SCPJU [1, 7]: 1 g ai/ha; pest or weed control at 70 g/ha [1, 13]: 75 to 84%; pest or weed control at 35 g/ha [1, 14]: 95 to 100%; pest or weed control at 70 g/ha [1, 14]: 95 to 100%; pest or weed control at 35 g/ha [1, 15]: 95 to 100%; pest or weed control at 70 g/ha [1, 15]: 95 to 100%
COc1c(N)nc(-c2ccc(Br)c(F)c2F)nc1C(=O)O [Compound 8] | 4 | 9 | 1 | 1 | 2 | 6 | >70 | >70 | 2 | 3 | 5 | 95 to 100 | 95 to 100 | 95 to 100 | 95 to 100 | 95 to 100 | 95 to 100 | 0 to 29 | 30 to 44 | 75 to 84 | GR50 SCPJU [1, 7]: 1 g ai/ha; GR80 SCPJU [1, 7]: 1 g ai/ha; pest or weed control at 70 g/ha [1, 13]: 85 to 94%; pest or weed control at 35 g/ha [1, 14]: 95 to 100%; pest or weed control at 70 g/ha [1, 14]: 95 to 100%; pest or weed control at 35 g/ha [1, 15]: 95 to 100%; pest or weed control at 70 g/ha [1, 15]: 95 to 100%
COc1c(N)nc(-c2ccc(Br)c(F)c2)nc1C(=O)O [Compound 113, 6-Amino-2-(4-bromo-3-fluorophenyl)-5-methoxypyrimidine-4-carboxylic acid] |  |  |  |  |  |  |  |  |  |  |  |  |  |  |  |  |  |  |  |  | pest or weed control at 35 g/ha [2]: 75 to 84%; pest or weed control at 70 g/ha [2]: 85 to 94%; GR50 CIRAR [2]: 7 g ai/ha; GR80 CIRAR [2]: 33 g ai/ha
COC(=O)c1nc(-c2ccc(C(F)(F)F)c(F)c2)c(F)c(N)c1Cl [Compound 165] | 12 | 27 | 19 | 67 | 10 | 24 | 24 | 56 | 44 | 1 | 1 | 85 to 94 | 95 to 100 | 75 to 84 | 75 to 84 | 85 to 94 | 95 to 100 | 0 to 29 | 95 to 100 | 0 to 29 | pest or weed control at 70 g/ha [1, 13]: 30 to 44%; pest or weed control at 35 g/ha [1, 15]: 95 to 100%; pest or weed control at 70 g/ha [1, 15]: 95 to 100%
